Measurements: paper PMC12000511, “Molecular basis for the assembly of the Vps5-Vps17 SNX-BAR proteins with Retromer” (Nature Communications, 2025)
Read-outs that look alike come from different tables or passages of the source. Where no end group is shown, it is not given here.

What was measured:
[1] = target: ctRetromer (Thermochaetoides thermophila, UniProt G0RZB5+G0S709); test: ITC, binding to ctRetromer; set-up: species or system Chaetomium thermophilum
Description: (§1) All the bacterial constructs were expressed in BL21(DE3) competent cells using standard isopropyl 1-thio-β-D-galactopyranoside induction or autoinduction method as described previously[39],[72],[73]. To obtain the Retromer trimer complex, the GST-tagged Vps29 and Vps35 co-expressed cell pellet were mixed with His-Vps26 and resuspended in lysis buffer containing 50 mM Tris-HCl pH 7.5, 200 mM NaCl, 5% glycerol, 50 μg/ml benzamidine and DNase I before passed through a Constant System TS-Series cell disruptor. […] For all constructs, the lysate was clarified by centrifugation and the supernatant was loaded onto either Talon® resin (Clonetech) or glutathione sepharose (GE healthcare) for initial purification. To obtain the correct stoichiometry ratio of the Retromer complex, both Talon® resin and glutathione sepharose (GE healthcare) were applied. […] The flow-through containing complex was further purified using size-exclusion chromatography (SEC) equilibrated with a buffer containing 50 mM Tris-HCl pH 7.5, 200 mM NaCl, 2 mM β-ME. […] To avoid the non-specific cleavage by the residual proteases such as thrombin, a tablet of protease inhibitor cocktail was added into the complex mixture. To remove the unbound fractions, the complex mixture was further purified using Superose 6 increase 10/300 GL column using the SEC buffer described above.
In brief, the clarified lysate was loaded onto glutathione sepharose (GE healthcare) and eluted using elution buffer containing 50 mM Tris-HCl pH 7.5, 200 mM NaCl, 5% glycerol, 20 mM glutathione reduced and 50 μg/ml benzamidine. The flow-through was further purified using SEC as the final purification step. To avoid the degradation, the constructs containing N-terminal disordered parts of Vps5 and Vps17 were used in fresh and experiments were finished within 3 days after purification.
(§2) All the proteins used for ITC experiments were prepared in buffer containing 50 mM Tris-HCl pH 7.5, 200 mM NaCl, 2 mM β-ME. […] In all cases, the ITC titration sequence consisted of an initial 0.4 μl (not used in data processing) followed by 12 serial injections of 3.22 μl each with 180 s intervals. The resulting titration data were integrated with Malvern software package by fitting and normalized data to a single-site binding model, yielding the thermodynamic parameters Kd, ∆H, ∆G and −T∆S for all binding experiments. The stoichiometry was refined initially, and if the value was close to 1, then N was set to exactly 1.0 for calculation. Data presented are the mean of triplicate titrations for each experiment.

[2] = target: T1, mVps29 (Mus musculus, UniProt Q9QZ88); test: ITC, binding to mVps29; conditions: ITC, mVps29
T1 construct: GST (thrombin site) (N, cleaved yes); made in house; host or cells: E. coli BL21(DE3)
Description: as §1, §2

[3] = target: ctRetromer (Chaetomium thermophilum Retromer trimer of ctVps35, ctVps26 and ctVps29) (Chaetomium thermophilum); test: ITC; Microcal PEAQ ITC, 25 °C, 50 mM Tris-HCl pH 7.5, 200 mM NaCl, 2 mM β-ME; Vps5/Vps17/SNX1 construct or peptide (200-400 µM) titrated into 10-15 µM Retromer or Vps29; single-site model, N set to 1.0 if close to 1
[4] = target: mouse VPS29 (mVPS29), long isoform (mouse); test: as above
[5] = test system: scRetromer and scSNX-BAR on supported membrane tubes; test: Supported membrane tube (SMT) assay; assay type: biochemical, Saccharomyces cerevisiae; conditions: scSNX-BAR and scRetromer on SMTs containing 5% PtdIns(3)P
Description: Supported membrane tubes were generated as described[46]. Briefly, glass coverslips were first washed with 3 M NaOH for 5 min and rinsed with water before a 60 min treatment with piranha solution (95% H2SO4/30% H2O2 3:2 v/v). Coverslips were rinsed with water and dried on a heat block at 90 °C. Coverslips were then silanized with 3-glycidyloxypropyltrimethoxysilane (Catalogue no. 440167, Sigma) for 5 h under vacuum, rinsed with acetone and dried. Polyethylene glycol coating was done by placing the coverslips in a beaker containing PEG400 (Sigma) at 90 °C for 60 h. Coverslips were washed with distilled water and stored for up to 2 months at room temperature in a closed container.
To generate supported membrane tubes, lipids were mixed from 10 mg/mL stocks in a glass vial and diluted to a final concentration of 1 mg/mL in chloroform. The same lipid mix was used throughout this study (5% PI(3)P, 15% DOPS, 0.1% fluorescent lipid tracer (Cy5.5 PE or Texas red DHPE), 79.5% egg-PC). Lipids were then spotted (typically 1 µL, corresponding to about 1 nmol) on the coverslips and dried for 30 min under vacuum. The coverslip was mounted on an IBIDI 6-channel µ-slide (µ-Slide VI 0.4. IBIDI, catalog no: 80606). Lipids were hydrated for 15 min with buffer (PBS) and SMTs were generated by injecting PBS into the chamber using an Aladdin Single-Syringe Pump (World Precision Instruments, model n°. AL-1000) at a flow rate of 1,5 mL/min for 5 min. SMTs were left to stabilize without flow for 5 min before the start of the experiment. Protein stocks (typically 1–2 µM) were first diluted in PBS and then injected in the chamber at a flow rate of 80 µL per minute. Cyclic peptides were added to the proteins from a 30 mM stock in DMSO to a final concentration of 300 µM. the protein/peptide mix was incubated for 1 min at room temp (23 °C) before being added to the SMTubes.

[6] = target: T2, hRetromer (Homo sapiens, UniProt Q96QK1+Q9UBQ0); test: ITC, binding to hRetromer; conditions: for binding to hRetromer: ITC, same conditions as ctRetromer
T2 construct: GST (N); made in house; host or cells: E. coli BL21(DE3) (general statement for bacterial constructs)
Description: as §1, §2

[7] = ctRetromer alone, ITC 25 °C, pH 7.5, 200 mM NaCl, mean of triplicate titrations
[8] = ITC, ctRetromer, Average of 3 batches

Chain of ctRetromer (G0RZB5 entry or part of it): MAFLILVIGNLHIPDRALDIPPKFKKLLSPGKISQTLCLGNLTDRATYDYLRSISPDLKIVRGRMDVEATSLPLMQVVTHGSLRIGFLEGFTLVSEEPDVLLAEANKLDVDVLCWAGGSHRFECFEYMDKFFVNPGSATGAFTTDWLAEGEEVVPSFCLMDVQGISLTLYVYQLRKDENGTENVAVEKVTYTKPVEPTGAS
Chain of ctRetromer (G0S709 entry or part of it): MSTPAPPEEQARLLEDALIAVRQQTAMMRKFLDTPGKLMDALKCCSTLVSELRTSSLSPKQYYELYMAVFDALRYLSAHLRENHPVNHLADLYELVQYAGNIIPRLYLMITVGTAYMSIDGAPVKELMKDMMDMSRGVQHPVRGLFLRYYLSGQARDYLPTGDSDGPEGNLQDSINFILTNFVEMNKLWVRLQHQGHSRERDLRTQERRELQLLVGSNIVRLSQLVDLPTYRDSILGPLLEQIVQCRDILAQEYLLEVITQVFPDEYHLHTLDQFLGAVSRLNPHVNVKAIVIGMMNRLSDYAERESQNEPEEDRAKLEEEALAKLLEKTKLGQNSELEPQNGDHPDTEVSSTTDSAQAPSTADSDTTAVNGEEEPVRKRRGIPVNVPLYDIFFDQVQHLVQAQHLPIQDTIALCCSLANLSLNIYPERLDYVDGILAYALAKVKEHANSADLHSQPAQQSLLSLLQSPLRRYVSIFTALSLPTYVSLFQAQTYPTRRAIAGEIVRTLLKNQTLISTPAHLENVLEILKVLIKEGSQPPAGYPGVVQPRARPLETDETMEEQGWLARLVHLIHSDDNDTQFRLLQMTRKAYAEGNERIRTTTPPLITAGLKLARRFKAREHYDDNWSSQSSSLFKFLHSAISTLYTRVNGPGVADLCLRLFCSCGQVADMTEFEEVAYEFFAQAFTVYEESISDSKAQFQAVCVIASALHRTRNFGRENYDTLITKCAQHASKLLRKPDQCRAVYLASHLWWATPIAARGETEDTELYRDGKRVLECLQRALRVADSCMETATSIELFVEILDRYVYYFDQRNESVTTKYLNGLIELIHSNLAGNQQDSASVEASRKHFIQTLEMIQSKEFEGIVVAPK
Chain of ctRetromer (G0S0E6 entry or part of it, further chain): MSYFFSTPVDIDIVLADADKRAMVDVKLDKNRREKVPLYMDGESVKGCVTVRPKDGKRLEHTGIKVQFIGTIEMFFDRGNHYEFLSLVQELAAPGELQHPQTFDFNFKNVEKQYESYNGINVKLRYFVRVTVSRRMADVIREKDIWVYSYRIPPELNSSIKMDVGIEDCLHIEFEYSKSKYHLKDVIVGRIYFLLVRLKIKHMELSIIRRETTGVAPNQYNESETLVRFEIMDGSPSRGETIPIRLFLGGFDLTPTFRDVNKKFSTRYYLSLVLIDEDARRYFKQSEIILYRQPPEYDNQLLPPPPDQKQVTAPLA

EDDPLGPLGA [ctVPS5 71 to 80]
Kd ([1]; ITC, ctRetromer, Batch 1): No binding | Kd ([1]; ITC, ctRetromer, Batch 2): No binding | Kd ([1]; ITC, ctRetromer, Batch 3): No binding | Delta G ([2]; Average of 3 batches): -5.8 kcal/mol | Delta H ([2]; Average of 3 batches): -8.0 kcal/mol | Delta G ([2]; Batch 1): -5.92 kcal/mol | Delta H ([2]; Batch 1): -6.98 kcal/mol | Delta G ([2]; Batch 2): -5.8 kcal/mol | Delta H ([2]; Batch 2): -9.07 kcal/mol | Delta G ([2]; Batch 3): -5.82 kcal/mol | Delta H ([2]; Batch 3): -7.81 kcal/mol

GST-ctVps5_61–80: GST-tagged ctVps5 residues 61–80 (VAKPKSLEAVEDDPLGPLGA; not fully specified (N-terminus); also: GST fusion, end not given here)
binding to ctRetromer ([1]; ITC 25 °C, pH 7.5, 200 mM NaCl): bind very weakly | ΔG [1, 7]: -5.76 ± 0.12 kcal/mol | ΔH [1, 7]: -7.22 ± 1.94 kcal/mol | −TΔS [1, 7]: 1.45 ± 2.07 kcal/mol | Kd ([1]; ctRetromer alone, Microcal PEAQ ITC, 25 °C, 50 mM Tris-HCl pH 7.5, 200 mM NaCl, 2 mM β-ME, single-site model, mean of triplicate titrations, read-out: Kd): 60.1 ± 12.2 µM

GST-ctVps5_(1–50) (domain or fragment)
Kd [3]: 40.1 µM | dH [3]: -2.7 kcal/mol

GST-ctVps5_(1–185) (domain or fragment)
Kd [3]: 0.72 µM | dH [3]: -3.1 kcal/mol | Kd [4]: 4.82 µM | dH [4]: -0.91 kcal/mol

GST-ctVps5_(51–100) PL74AA (domain or fragment)
Kd [3]: 5.04 µM | dH [3]: -1.76 kcal/mol

SRATPRRIVAKPKSLEAVEDDPLGPLGA [ctVPS5 53 to 80]
Delta G [1, 8]: -8.38 kcal/mol | Delta H [1, 8]: -2.83 kcal/mol | minus T delta S [1, 8]: -5.57 kcal/mol | Delta G ([1]; ITC, ctRetromer, Batch 1): -8.4 kcal/mol | Delta H ([1]; ITC, ctRetromer, Batch 1): -3.44 kcal/mol | minus T delta S ([1]; ITC, ctRetromer, Batch 1): -4.89 kcal/mol | Delta G ([1]; ITC, ctRetromer, Batch 2): -8.35 kcal/mol | Delta H ([1]; ITC, ctRetromer, Batch 2): -2.43 kcal/mol | minus T delta S ([1]; ITC, ctRetromer, Batch 2): -5.98 kcal/mol | Delta G ([1]; ITC, ctRetromer, Batch 3): -8.38 kcal/mol | Delta H ([1]; ITC, ctRetromer, Batch 3): -2.62 kcal/mol | minus T delta S ([1]; ITC, ctRetromer, Batch 3): -5.85 kcal/mol

SRATPRRIVAKPKSLEAVEDDPLGPLGA [ctVps5_53–80 peptide]
Kd ([1]; read-out: Kd): 0.74 ± 0.05 µM

ctVps5_(71–80) peptide
Kd [4]: 54.1 µM | dH [4]: -8 kcal/mol

scRetromer-mRuby: purified recombinant scRetromer carrying mRuby
coat formation / recruitment on SMTs [5]: co-recruited to the tubes within a minute after their addition

VAKPKSLEAVEDDPLGPLGA (domain or fragment, also: GST fusion) [GST-ctVps5_(61–80)]
Kd [3]: 60.1 µM | dH [3]: -7.22 kcal/mol

B1: GST-mSNX1_1–139: SNX1 N-terminal residues 1–139 (protein)
chain: MASGGGGCSASERLPPPFPGLEPESEGAAGGSEPEAGDSDTEGEDIFTGAAVVSKHQSPKITTSLLPINNGSKENGIHEEQDQEPQDLFADATVELSLDSTQNNQKKVLAKTLISLPPQEATNSSKPQPTYEELEEEEQ
modifications: left off: GST, end not stated, kept
Kd ([6]; ITC 25 °C, 50 mM Tris-HCl pH 7.5, 200 mM NaCl, 2 mM β-ME, mean of triplicate titrations): No binding detected | binding to hRetromer ([6]; listed as GST-hSNX1_1–139): no detectable interaction | binding to hRetromer ([6]; listed as human SNX1): no detectable association

SRATPRRIVAKPKSLEAVEDDPLGPLGA [ctVps5_(53–80) peptide]
Kd [3]: 0.74 µM | dH [3]: -2.83 kcal/mol

B2: scSNX-BAR-GFP: scVps5–scVps17 heterodimer tagged with GFP (protein)
chain 1: MDYEDNLEAPVWDELNHEGDKTQSLVSNSIESIGQISTNEERKDNELLETTASFADKIDLDSAPEWKDPGLSVAGNPQLEEHDNSKADDLINSLAPEQDPIADLKNSTTQFIATRESGGALFTGNANSPLVFDDTIYDANTSPNTSKSISGRRSGKPRILFDSARAQRNSKRNHSLKAKRTTASDDTIKTPFTDPLKKAEKENEFVEEPLDDRNERRENNEGKFTASVEKNILEQVDRPLYNLPQTGANISSPAEVEENSEKFGKTKIGSKVPPTEKAVAFKVEVKDPVKVGELTSIHVEYTVISESSLLELKYAQVSRRYRDFRWLYRQLQNNHWGKVIPPPPEKQSVGSFKENFIENRRFQMESMLKKICQDPVLQKDKDFLLFLTSDDFSSESKKRAFLTGSGAINDSNDLSEVRISEIQLLGAEDAAEVLKNGGIDAESHKGFMSISFSSLPKYNEADEFFIEKKQKIDELEDNLKKLSKSLEMVDTSRNTLAASTEEFSSMVETLASLNVSEPNSELLNNFADVHKSIKSSLERSSLQETLTMGVMLDDYIRSLASVKAIFNQRSKLGYFLVVIENDMNKKHSQLGKLGQNIHSEKFREMRKEFQTLERRYNLTKKQWQAVGDKIKDEFQGFSTDKIREFRNGMEISLEAAIESQKECIELWETFYQTNL
chain 2: MTSAVPYDPYDDLDNNPFAEPQEEDSEPAATTTDGSSSMSEERVGTEQTAASVQDNGTANNIQNGLGEEGNATRSKTSNEHNENQQPSQPSERVILPERSDEKKKYTLLAKVTGLERFGSATGKKENPTIIFDCSTNLPTFRKQQYKNVKKSYEEFHQLFKYLNVAIQESFVPTLPSAYTTFGINSEEDRMKVTRNFQLWFNRLSQDPLIIRNEEVAFFIESDFNTYTPINKSKSLASGLKRKTLKQLAPPYDEITELAEFRPLVKSIYVVSQSLQEKLLRVSRNRKMMVQEENAFGQDFVNLDEHNKLYRRYGKILTAVGDIDSIIATMDMATLYDGLEWIVRDAYAVKEALTNRHFIMRNLVQAQQNSKAKQEQARRFRSRRDINPMKIDEALRQLKAAAKNEQVLTLKLQRITSNMIIERKQWISWYEEWIRSSIKEFTLRKIEYERKKLTLLERVRSDIRKADENGGLSRLGRHAVSNNNSDTSQTLKGDSWTGESNRKSQIPINKIAHTEFDDELFTEDDGYNSQDSDTTSLNARHAASLLGMSTK
coat formation / recruitment on SMTs [5]: co-recruited to the tubes within a minute after their addition
